Measured values taken from patent US20110245105A1, “Methods and Kits for Direct Detection and Susceptibility Profiling of Beta-Lactam Resistant Bacteria” (YISSUM RESEARCH DEVELOPMENT COMPANY OF THE HEBREW …, priority 2008, published 2011).

Tests used:
carbapenemase = assay: detection of carbapenemase activity in clinical urine samples; format: biochemical; details: urine pellet streak; 12 min at room temperature; 5.0-30 mg/mL substrate
Protocol: Activated ART strip impregnated with 30 μL of an aqueous solution of 30, […], 20, 15, 10 and 5.0 mg/mL imipenem (Ipm) or ertapenem (Etp) in positions 1, 2, 3, 4 and 5 on the strip, respectively, was placed in contact with a slide streaked with a urine pellet sample (Ipm+Sam. or Etp+Sam.), or an unstreaked slide (Ipm Cont. or Etp Cont.), […] reaction to appear. Abbreviations: Cont. (control), Etp. (ertapenem), Ipm. (imipenem), sam. (sample).
The product of the enzymatic degradation of a beta-lactam antibiotic removes the iodine from the ART strip and causes local decolorization in that strip. Typically, a detection kit consists of two slides, as illustrated in FIG. 2. The bottom slide is streaked with the sample to be tested. The top slide (lid) carries the ART strip which is activated when each test area on the strip receives 25 μL of the activator solution consisting of 40 mg gelatin in 100 mL phosphate buffer pH 6.5. The test starts when the top slide carrying the freshly activated ART strip contacts the bottom slide carrying the sample. […]
Urine samples were concentrated by a two minute centrifugation step at 3000 RPM and the resulting pellet was streaked on standard slides. […] As shown by the figure, the carbapenemase activity is easily detected using this method, even in samples containing low concentrations of antibiotic substrates.

E. coli [1] = assay: ART strip (Antibiotics Resistance Test), iodometric detection of beta-lactam hydrolysis by un-cultured urine sample pellets; format: cell-based
Protocol: (§1) Filter paper (Whatman no. 3) strips impregnated with 50 mM potassium iodide and 10 mM iodine in 0.75% aqueous starch solution were divided into 6 test areas. Appropriate antibiotic substrates were prepared at a final concentration of 20 mg/mL. Each test area was impregnated with 30 μL of the appropriate solution. The strips were then dried in a lyophilizer and stored with a desiccant at 4° C.
(§2) One mL urine samples were spun 2 minutes at 3000 RPM in room temperature. Supernatants were removed and aliquots of the resulting pellets were streaked on standard slides.
(§3) The product of the enzymatic degradation of a beta-lactam antibiotic removes the iodine from the ART strip and causes local decolorization in that strip. Typically, a detection kit consists of two slides, as illustrated in FIG. 2. The bottom slide is streaked with the sample to be tested. The top slide (lid) carries the ART strip which is activated when each test area on the strip receives 25 μL of the activator solution consisting of 40 mg gelatin in 100 mL phosphate buffer pH 6.5. The test starts when the top slide carrying the freshly activated ART strip contacts the bottom slide carrying the sample. It may be carried out at ambient temperatures but will be accelerated by warming-up to 41° C. […] Result is confirmed if no decolorization took place in the absence of the bacteria (the background of that test area) or in the absence of the antibiotic (as in Test Area 2 in FIG. 1).
(§4) One mL urine sample pellets were collected as described in Example 1 and each streaked on a slide. The strip of the invention (termed ART for Antibiotics Resistance Test) was used to test for beta-lactamase and its ability to degrade Ceftazidime [Caz], Ceftriaxone [Cro], Cefuroxime [Cxm] and Ampicillin [Amp]. The strip, containing iodine and starch and divided to areas containing each of the abovementioned antibiotics, and attached to a plain slide, was activated as shown above, and placed on the streaked slide. After 5-15 minutes at 33° C.-38° C. the slide was scanned and recorded.

Prot. mirabilis = assay: ART strip test on urine sample pellets; format: cell-based
Protocol: as §1, §2, §3, §4

Str. agalactiae = assay: ART strip test on urine sample pellets; format: cell-based; details: 3 samples (r34)
Protocol: as §1, §2, §3, §4

K. pneumoniae [2] = assay: ART strip test on urine sample pellets; format: cell-based
Protocol: as §1, §2, §3, §4

Morg. morganii = assay: ART strip test on urine sample pellets; format: cell-based
Protocol: as §1, §2, §3, §4

Citr. koseri = assay: ART strip test on urine sample pellets; format: cell-based; details: 2 samples (r25)
Protocol: as §1, §2, §3, §4

Acinetobacter sp. = assay: ART strip test on urine sample pellets; format: cell-based; details: 1 sample (r29)
Protocol: as §1, §2, §3, §4

E. faecalis = assay: ART strip test on urine sample pellets; format: cell-based; details: 4 samples (r27)
Protocol: as §1, §2, §3, §4

K. oxytoca [3] = assay: ART strip test on urine sample pellets; format: cell-based
Protocol: as §1, §2, §3, §4

Staphylococcus sp. = assay: ART strip test on urine sample pellets; format: cell-based
Protocol: as §1, §2, §3, §4

K. pneumoniae [4] = assay: conventional lab procedures [CLP], resistance of bacterial isolates; format: cell-based; details: 1 sample (r12)
Text: (§5) The same specimens were examined using conventional lab procedures [CLP] that determined the identity of the bacterial isolates and their resistance to the above beta-lactams.

K. oxytoca [5] = assay: as above; format: cell-based; details: 1 sample (r15)
Text: as §5

K. pneumoniae [6] = assay: modular antibiotic resistance detection kit on urine sample pellets; format: cell-based; details: K. pneumoniae, profile r20
Protocol: (§6) A modular antibiotic resistance detection kit offers more flexibility in testing different resistance profiles. In the modular detection kit exemplified here, the ART strip is replaced by filter paper segments glued to a slide, each segment impregnated with a single antibiotic.
(§7) Specifically, pathogen samples were tested using filter papers impregnated with the following beta-lactam antibiotics: ampicillin [Amp], augmentin (a combination of amoxicillin and clavulanic acid) [AMC], clavulanic acid (Reduced Resistance test) [RR], ceftazidime [Caz] and either imipenem or meropenem [CPM]. The impregnation details of the fragments were as in the previous Examples.
(§8) Filter paper (Whatman no. 3] strips impregnated with Assay Reagent solution were used as “indicator strips”. An indicator strip was attached to the plain top slide as shown in FIG. 2. Aliquots of the pellets of the urine samples tested were placed on each of the segments. The test was started by placing the activated indicator-strip-slide, on the modular antibiotic slide. The scan results obtained after 5-10 min at 38° C. are illustrated schematically in FIG. 2 where all segments, except for the negative (no antibiotic) control, show decolorization indicating resistance to each antibiotic in that array.
(§9) Samples resistant to ceftazidime but affected by clavulanic acid were assumed to contain extended spectrum beta lactamases (ESBLs). The ‘Confirmed’ detections column summarizes the number of CLP-validated results out of the total findings recorded.

Citrobacter freundii = assay: as above; format: cell-based; details: profile r23
Protocol: as §6, §7, §8, §9

E. coli [7] = assay: as above; format: cell-based; details: E. coli, profile r12
Protocol: as §6, §7, §8, §9

[8] = tested on: carbapenem-resistant Enterobacteriaceae; assay: modular kit for detection of CRE in urine sample; format: cell-based; details: CRE-containing urine sample; as part of augmentin
Protocol: The kit constructed as a twin-slide [as illustrated by FIG. 1] carries an “OCTET” strip impregnated [as in Example 1] with an array of eight beta-lactam antibiotics and 1 non-beta-lactam control [S].
To illustrate the life-saving potential of the proposed technology which eliminates delays in diagnosis of carbapenem-resistant members of the Enterobacteriaceae family (CRE), a CRE sample was analyzed using the invention's modular kit, containing ampicillin, ceftazidime, augmentin, cefotaxime, imipenem, cefuroxime, meropenem and ceftriaxone as beta-lactamase substrates and a non-beta-lactam antibiotic, served as a negative control.
Filter paper segments were glued to a slide, each segment impregnated with a single antibiotic of the abovementioned antibiotics and streaked with carbapenem-resistant Enterobacteriaceae-containing urine sample pellets, prepared as described in Examples 1 to 3. The slide was contacted with indicator strips attached to a slide.

[9] = 28 samples (r6), 5-15 minutes at 33° C.-38° C.

SMILES	resistance profile predicted by ART (E. coli [1]; 3 samples (r8), MDR)	resistance profile predicted by ART (E. coli [1]; 12 samples (r7))	resistance profile predicted by ART (E. coli [1]; [9])	resistance profile predicted by ART (Prot. mirabilis; 1 sample (r18))	resistance profile predicted by ART (Prot. mirabilis; 1 sample (r19))	resistance profile predicted by ART (Prot. mirabilis; 1 sample (r20))	resistance profile predicted by ART (Prot. mirabilis; 6 samples (r17))	resistance profile predicted by ART (Str. agalactiae)	resistance profile predicted by ART (K. pneumoniae [2]; 1 sample (r12))	resistance profile predicted by ART (K. pneumoniae [2]; 8 samples (r11))	resistance profile predicted by ART (K. pneumoniae [2]; 11 samples (r10), MDR)	resistance profile predicted by ART (Morg. morganii; 1 sample (r22))	resistance profile predicted by ART (Morg. morganii; 1 sample (r23))	resistance profile predicted by ART (Citr. koseri)	resistance profile predicted by ART (Acinetobacter sp.)	resistance profile predicted by ART (E. faecalis)	resistance profile predicted by ART (K. oxytoca [3]; 1 sample (r15))	resistance profile predicted by ART (K. oxytoca [3]; 3 samples (r14))	resistance profile predicted by ART (Staphylococcus sp.; 1 sample (r31))	resistance profile predicted by ART (Staphylococcus sp.; 1 sample (r32))	also measured
C[C@@H](O)[C@H]1C(=O)N2C(C(=O)O)=C(S[C@@H]3CN[C@H](C(=O)Nc4cccc(C(=O)O)c4)C3)[C@H](C)[C@H]12 [Ert, ertapenem]																					hydrolysis by carbapenemase in the sample (decolorization of strip) (carbapenemase): hydrolyzing
CO/N=C(\C(=O)N[C@@H]1C(=O)N2C(C(=O)O)=C(COC(N)=O)CS[C@H]12)c1ccco1 [Cxm, Cefuroxime]	R	S	S	R	R	R	S	S[nd]	R	S	R	S	R	S	S	S[nd]	R	S	S	S	
CO/N=C(\C(=O)N[C@@H]1C(=O)N2C(C(=O)O)=C(CSc3nc(=O)c(=O)[nH]n3C)CS[C@H]12)c1csc(N)n1 [Cro, Ceftriaxone]	R	S	S	S	R	S	S	S[nd]	S	S	R	S	R	S	S	S[nd]	S	S	S	S	CLP result differing from ART (in brackets) (K. pneumoniae [4]): R; CLP result differing from ART (in brackets) (K. oxytoca [5]): R
O=C(O)[C@H]1/C(=C/CO)O[C@@H]2CC(=O)N21 [RR, clavulanic acid]																					Effect of clavulanic acid (Reduced Resistance) (K. pneumoniae [6]): N; Effect of clavulanic acid (Reduced Resistance) (Citrobacter freundii): N; Effect of clavulanic acid (Reduced Resistance) (E. coli [7]): N; protection from hydrolysis [8]: no protection from hydrolysis
